Results reported in article PMC6149849, “Cymantrenyl-Nucleobases: Synthesis, Anticancer, Antitrypanosomal and Antimicrobial Activity Studies” (Molecules : A Journal of Synthetic Chemistry and Natural …, 2017).
Read-outs that look alike come from different tables or passages of the source.

Key:
SKOV-3 cells [1] = assay: Apoptotic/necrotic cell death, Hoechst 33258/propidium iodide staining, fluorescence microscopy; type: cell-based, human; details: for increase of apoptotic cells compared to untreated control cells: SKOV-3, 24 h treatment with IC50 concentrations, post-treatment 24 and 48 h; for apoptotic cell fraction predominantly increased: SKOV-3, IC50 concentrations
Method: (§1) To determine the mode of cell death that was triggered by cymantrene derivatives, appropriately stained SKOV-3 cells were evaluated for morphological changes using fluorescence microscopy. For evaluation of apoptosis and autophagy, cells were stained with Hoechst 33258/propidium iodide to distinguish between live, apoptotic and necrotic cells and reveal condensed chromatin and apoptotic bodies (a hallmark of apoptosis), and with acridine orange to detect the development of acidic vesicular organelles (AVOs—a hallmark of autophagy).
(§2) One day prior to the experiments, cells were seeded at the appropriate density into 35 mm diameter dishes. […] At the end of incubation, the medium was aspirated, the cell monolayer was washed twice with pre-warmed PBS, and fresh medium was added. The cells were cultured in drug-free medium for an additional 24 or 48 h to enable them to recover after the exposure to the compounds and to repair any induced damages.
Quantitative analysis of morphological changes that are associated with apoptosis, necrosis, and autophagy were assessed using a fluorescence microscope (Olympus IX70, Tokyo, Japan) at 400× magnification, as described elsewhere. At the indicated time points, cells were washed with PBS, trypsinized, and centrifuged at 1000 rpm (fixed angle rotor, 72× g) for 5 min at 37 °C. The supernatant was removed and the cell pellet (100 µL) was transferred to the Eppendorf tube, mixed with Ho33258 (2 µL, 0.13 mM) and PI (2 µL, 0.23 mM), and incubated for 5 min in the dark at room temperature. At least 300 stained cells were counted in triplicate in each of the three independent experiments. Cells were classified as live, apoptotic, or necrotic on the basis of their morphological and staining characteristics, and each fraction was related to the total cell number.

[2] = system: MCF-7 (hormone-responsive breast adenocarcinoma); assay: MTT cytotoxicity assay, MCF-7; type: cell-based, human
Method: (§6) Anticancer activity of cymantrenes was determined using a panel of human cancer cell lines that were derived from solid tumors. […] The inhibitory effect of cymantrene derivatives on cell proliferation and growth was determined based on survival curves and was expressed as IC50 values (concentration required to achieve a 50% decrease in cell viability when compared to the viability of untreated control cells) calculated using GraphPad Prism 4.02 software for Windows (GraphPad Software, San Diego, CA, USA). Cell viability was determined by the MTT microplate spectrophotometric cytotoxicity test.
(§7) Cells were grown as a monolayer in DMEM growth medium, supplemented with 10% FBS, penicillin (10 U/mL) and streptomycin (50 μg/mL), under standard conditions (37 °C, 5% CO2 and 95% air, 100% humidity) and periodically checked for Mycoplasma contamination.
(§8) The cytotoxicity of cymantrene derivatives was evaluated by the MTT microplate methods as described elsewhere [67] by incubating the cells with increasing concentrations of tested compounds for 24 h. Briefly, 0.1 mL of logarithmically growing cells were seeded in a 96-well microplate (5 × 10^4 cells/well) a day before the experiments and after 24 h of culture, tested compounds, dissolved in DMSO, and diluted in culture medium, were added. […] After further incubation for 24 h, the medium was replaced with fresh medium and the cells were allowed to grow for additional 48 h. Then, the medium was aspirated and 0.05 mL of MTT (final concentration of 5 mg/mL medium) added to each well, and the cells were incubated for further 4 h. The absorbance of the product, resulting from the MTT reduction, was read with a microplate reader at 545 nm. The percentage of viable cells was calculated by comparing the absorbance of treated cells with that of the untreated control cells (taken as 100%). The IC50 concentration of each compound was calculated from the cell survival curves using GraphPad Prism 4.02 software for Windows (GraphPad Software, San Diego, CA, USA).

[3] = system: HepG2 (hepatocellular carcinoma); assay: MTT cytotoxicity assay, HepG2; type: cell-based, human
Method: as §6, §7, §8

[4] = system: bloodstream forms of T. brucei clone 427-221a; assay: Trypanocidal assay, resazurin viability assay; type: cell-based, Trypanosoma brucei; details: for GI50: 50% growth inhibition; for MIC and GI50 ratios of cytotoxic to trypanocidal activities: HL-60 / T. brucei; for MIC: concentration at which all cells were killed, determined microscopically; for Selectivity GI50 Ratio / Selectivity MIC Ratio: ratio of cytotoxic (HL-60) to trypanocidal (T. brucei) activity
Method: (§3) All of the cultures were maintained at 37 °C in a humidified atmosphere containing 5% of CO2. Toxicity assays were performed, as previously described, with some modifications. In brief, trypanosomes and HL-60 cells were seeded at an initial cell density of 10^4/mL and 5 × 10^4/mL, respectively, in 96-well plates in a final volume of 200 μL culture medium containing various concentrations of test compounds dissolved in 100% DMSO. […] The controls contained DMSO alone. In all of the experiments, the final DMSO concentration was 0.9%. After 24 h incubation, 20 µL of a 0.5 mM resazurin solution prepared in PBS was added and the cultures were incubated for a further 48 h. Resazurin is a vital dye that, when being reduced by living cells, changes its colour from blue to pink. Thus, by measuring absorbance, the proliferation of cells can be easily determined. The change in absorbance was read with a microplate reader using a test wavelength of 570 nm and a reference wavelength of 630 nm. GI50 values were calculated by linear interpolation according to the method described by Huber and Koella. MIC values were determined microscopically.

SKOV-3 cells [5] = assay: Autophagy (acidic vesicular organelles, AVOs), acridine orange staining; type: cell-based, human; details: SKOV-3, IC50 concentrations 24 h, then 0, 24 or 48 h drug-free
Method: as §1, §2
The ability of tested compounds to induce autophagosome formation inside cells (the process associated with the induction of autophagy) was evaluated by microscopic examination of the morphology of cells stained with acridine orange (AO).

[6] = system: human myeloid leukemia HL-60 cells; assay: General cytotoxicity, resazurin viability assay
Method: as §3

[7] = system: E. coli ATCC BAA-198 (ESBL); assay: Antibacterial liquid microdilution (CLSI M07-A8); type: cell-based, Escherichia coli; details: 18 to 24 h
Method: (§4) Organometallic compounds play an increasingly important role in the search for new antibacterial agents. We, therefore, thought to investigate also the bactericidal activity of the newly synthesized cymantrenes 1–7, compound C and CymH. The antibacterial activity of the compounds was tested against Gram-positive methicillin-sensitive Staphylococcus aureus (MSSA), methicillin-resistant S. aureus (MRSA), vancomycin-intermediate S. aureus (VISA), S. epidermidis, and Gram-negative Escherichia coli bacterial strains, and expressed as minimal inhibitory concentration (MIC) values (Table 3).
(§5) The antibacterial activity of CymH, 1–7 and C and the reference drugs penicillin G and polymyxin B was tested by the liquid microdilution method under standard conditions using twofold dilution series, as described in the Clinical and Laboratory Standards Institute (CLSI), reference method M07-A8, and expressed as minimal inhibitory concentration (MIC) values. A panel of Gram-positive bacterial strains, S. aureus ATCC® 29213 (sensitive to methicillin, (MSSA)), S. aureus ATCC® 43300 (resistant to methicillin, (MRSA)), S. aureus ATCC 700787™ (intermediate to vancomycin, (VISA)), and S. epidermidis ATCC 12228™, and one Gram-negative, strain E. coli ATCC BAA-198™ (ESBL) were used. In addition, four clinical isolates of S. aureus (MSSA and MRSA) and two clinical isolates of S. epidermidis that were collected from different patients at the Medical University of Warsaw, Poland, were also tested. The bacterial cells were cultivated on tryptic soy agar (TSA) and nutrient agar (NA), according to ATCC recommendations. All of the strains were incubated at 37 °C. Tested compounds were dissolved in DMSO and then serially diluted twofold with cation-adjusted Mueller-Hinton broth (CAMHB). Then, 95 µL of the dilutions were dispensed into microdilution sterile plates (Mar-Four), followed by the addition of 5 µL of bacteria inoculum containing 5 × 10^4 CFU/mL. The final concentrations of the compounds ranged from 512 to 2 µg/mL. Each compound was tested in triplicate, and Penicillin G (8–0.15 µg/mL) and Polymyxin B (256–0.0625 µg/mL) were used as controls. The plates were incubated at 37 °C for 18 to 24 h depending on the bacterial strain. Thereafter, the absorbance was measured at λ = 540 nm and λ = 595 nm using a Spectrostar Omega microplate reader (BMG Labtech, Offenburg, Germany). The MIC value was defined as the lowest concentration of a compound that reduced the growth by 100%.

[8] = system: SKOV-3 (ovarian adenocarcinoma); assay: MTT cytotoxicity assay, SKOV-3; type: cell-based, human
Method: as §6, §7, §8

U87-MG (glioblastoma) = assay: MTT cytotoxicity assay, U87-MG; type: cell-based, human
Method: as §6, §7, §8

[9] = system: S. aureus ATCC 43300 (MRSA); assay: Antibacterial liquid microdilution (CLSI M07-A8); type: cell-based, Staphylococcus aureus; details: 18 to 24 h
Method: as §4, §5

[10] = system: S. aureus ATCC 29213 (MSSA); assay: Antibacterial liquid microdilution (CLSI M07-A8); type: cell-based, Staphylococcus aureus; details: 18 to 24 h
Method: as §4, §5

[11] = system: S. aureus ATCC 700787 (VISA); assay: Antibacterial liquid microdilution (CLSI M07-A8); type: cell-based, Staphylococcus aureus; details: 18 to 24 h
Method: as §4, §5

[12] = 24 h incubation, MTT, means ± SEM, read-out: cytotoxicity IC50, MCF-7
[13] = 24 h incubation, MTT, means ± SEM, read-out: cytotoxicity IC50, HepG2
[14] = concentration at which all cells were killed
[15] = read-out: HL-60 GI50, 50% growth inhibition
[16] = 24 h incubation, MTT, means ± SEM, read-out: cytotoxicity IC50, SKOV-3
[17] = 24 h incubation, MTT, means ± SEM, read-out: cytotoxicity IC50, U87-MG

Structure (SMILES)	increase of apoptotic cells compared to untreated control cells (SKOV-3 cells [1])	apoptotic cell fraction predominantly increased (SKOV-3 cells [1])	GI50 [4] [µM]	MIC [4] [µM]	Selectivity GI50 Ratio [4]	Selectivity MIC Ratio [4]	induction of autophagy (cells containing AVOs) (SKOV-3 cells [5])	MIC, E. coli ATCC BAA-198 [7] [µg/mL]	MIC, S. aureus ATCC 43300 (MRSA) [9] [µg/mL]	MIC, S. aureus ATCC 29213 (MSSA) [10] [µg/mL]	MIC, S. aureus ATCC 700787 (VISA) [11] [µg/mL]	IC50 [2] [µM]	IC50 [3] [µM]	GI50 [6] [µM]	HL-60 MIC [6] [µM]	IC50 [8] [µM]	IC50 (U87-MG (glioblastoma)) [µM]	other results
Nc1ncnc2c1ncn2CCC(O)[C]12[CH]3[CH]4[CH]5[CH]1[Mn]4532[P](c1ccccc1)(c1ccccc1)c1ccccc1.[C-]#[O+].[C-]#[O+] (racemic) [Compound 5]	9 fold	early apoptotic cells	3.14 ± 0.31	10	9.1	10	Less induction of autophagy	>256	>256	>256	>256							IC50 [2, 12]: 102 ± 1.11 µM; IC50 [3, 13]: 106 ± 2.31 µM; MIC and GI50 ratios of cytotoxic to trypanocidal activities [4]: 7–13; HL-60 MIC [6, 14]: 100 µM; GI50 [6, 15]: 28.7 ± 3 µM; IC50 [8, 16]: 63.8 ± 3.19 µM; IC50 (U87-MG (glioblastoma); [17]): 54.2 ± 2.71 µM
O=C(CCn1cc(F)c(=O)[nH]c1=O)[C]12[CH]3[CH]4[CH]5[CH]1[Mn]4532.[C-]#[O+].[C-]#[O+].[C-]#[O+] (stereo not shown) [Compound 1]	6 fold		3.02 ± 0.14	10	11.0	10	Less induction of autophagy	>512	32	64	32	70.5 ± 2.52	114 ± 2.72	33.1 ± 3.4	100	75.1 ± 3.76	64.5 ± 3.22	MIC and GI50 ratios of cytotoxic to trypanocidal activities [4]: 7–13
COC(CCn1cnc2c(N(C)C)ncnc21)[C]12[CH]3[CH]4[CH]5[CH]1[Mn]4532.[C-]#[O+].[C-]#[O+].[C-]#[O+] (racemic) [Compound 6]	6 fold		26.1 ± 1.9	100	3.6	>1	greatest autophagic changes	>512	>512	>512	>512	111 ± 3.57	86.9 ± 2.34	95.2 ± 44.4	>100	77.1 ± 3.86	131 ± 3.53	
CCC(=O)[C]12[CH]3[CH]4[CH]5[CH]1[Mn]4532.[C-]#[O+].[C-]#[O+].[C-]#[O+] (stereo not shown) [Compound 7, propionylocymantrene]	9 fold	late-apoptotic cell fraction					greatest autophagic changes	>512	>512	>512	>512	> 150	110 ± 2.48			69.8 ± 3.49	83.6 ± 1.18	
COC(CCn1cc(F)c(=O)n(C)c1=O)[C]12[CH]3[CH]4[CH]5[CH]1[Mn]4532.[C-]#[O+].[C-]#[O+].[C-]#[O+] (racemic) [Compound 4]	only a three-fold increase		29.6 ± 6.8	100	>3.4	>1	Less induction of autophagy	>512	>512	>512	>512	> 150	> 150	> 100	>100	> 150	> 150	
O=[C]=[Mn](=[C]=O)(=[C]=O)[CH]1C=CC=C1 [CymH, tricarbonyl(η^5-cyclopentadienyl)manganese, reference compound]			44.6 ± 12.3	100	>2.2	>1	greatest autophagic changes	>512	>512	>512	>512							IC50 [2, 12]: 86 ± 1.3 µM; IC50 [3, 13]: 74.7 ± 3.73 µM; HL-60 MIC [6, 14]: >100 µM; GI50 [6, 15]: > 100 µM; IC50 [8, 16]: 121 ± 3.05 µM; IC50 (U87-MG (glioblastoma); [17]): 84.4 ± 4.22 µM
Nc1ncnc2c1ncn2CCC(O)[C]12[CH]3[CH]4[CH]5[CH]1[Mn]45321[P](c2ccccc2)(c2ccccc2)CC[P]1(c1ccccc1)c1ccccc1.[C-]#[O+] (racemic) [Compound C]	9 fold	early apoptotic cells					greatest autophagic changes	>128	32	32	32	104 ± 1.19	66.6 ± 3.33				38.3 ± 1.91	
